Like-named read-outs stand apart in the source and are kept apart here.
How the values were obtained:
human NTCP [1] = target: T1, human NTCP (Homo sapiens, UniProt Q14973); assay: Screening fluorescent competitive Myrcludex B-FITC binding assay (96-well, 10 µM drug)
T1 sequence (Q14973 1-349): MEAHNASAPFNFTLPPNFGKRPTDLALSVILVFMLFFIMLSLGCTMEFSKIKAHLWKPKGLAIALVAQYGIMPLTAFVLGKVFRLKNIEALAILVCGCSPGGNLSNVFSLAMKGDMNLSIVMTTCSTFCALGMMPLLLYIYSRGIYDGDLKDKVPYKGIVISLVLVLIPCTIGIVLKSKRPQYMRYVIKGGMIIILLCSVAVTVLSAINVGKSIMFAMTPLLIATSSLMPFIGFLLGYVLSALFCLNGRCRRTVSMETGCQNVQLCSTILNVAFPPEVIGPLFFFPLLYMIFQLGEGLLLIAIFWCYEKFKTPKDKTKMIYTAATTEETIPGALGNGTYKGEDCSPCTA

human NTCP [2] = target: T1, human NTCP; assay: Screening taurocholate uptake assay (96-well, [14C]taurocholate, 10 µM drug)
[3] = Prestwick library screen, 10 µM drug, B-score of Myrcludex B-FITC binding
[4] = Prestwick library screen, 10 µM drug, B-score of taurocholate uptake
[5] = combined ranking from functional and binding assay B-scores
[6] = screen, 10 µM drug, Myrcludex B-FITC binding
[7] = combined ranking from functional and binding screening assays
[8] = screen, 10 µM drug, taurocholate uptake
[9] = Prestwick library screen, Myrcludex B-FITC binding, 10 µM drug
[10] = Prestwick library screen, taurocholate uptake, 10 µM drug
[11] = ranking score beside the functional and binding assay B-scores of the screen

Row | Structure (SMILES) | B-score binding assay (human NTCP [1]; [3]) | B-score functional assay (human NTCP [2]; [4]) | Ranking score (human NTCP [2]; [5]) | B-score binding assay (human NTCP [1]; [9]) | B-score functional assay (human NTCP [2]; [10]) | Ranking score (human NTCP [2]; [11]) | also measured
1 | Br.COc1ccc2c(c1)[C@]13CCCC[C@@H]1[C@H](C2)N(C)CC3.O | 2.674 | 0.044 | 928.917 |  |  |  | 
2 | COc1cc2c(cc1OC)C(C)NCC2.Cl (stereo not drawn) | 0.343 | 2.498 | 1023.83 |  |  |  | 
3 | Cc1ccc(Cl)c(Nc2ccccc2C(=O)[O-])c1Cl.O.[Na+] |  |  |  |  |  |  | B-score binding assay (human NTCP [1]; [6]): 0.415; Ranking score (human NTCP [2]; [7]): 386.518; B-score functional assay (human NTCP [2]; [8]): -1.621
4 | Cl.Cl.Cl.Cl.Cl.NCCNCCNCCNCCN |  |  |  | 0.678 | -0.035 | 758.136 | 
5 | CCCCC(C)(O)C/C=C/[C@H]1[C@H](O)CC(=O)[C@@H]1CCCCCCC(=O)OC (mixture of isomers) [Misoprostol] |  |  |  | 0.662 | -0.231 | 671.728 | 
6 | CN(N=O)C(=O)N[C@H]1C(O)O[C@H](CO)[C@@H](O)[C@@H]1O (mixture of isomers) [Streptozotocin] |  |  |  |  |  |  | B-score binding assay (human NTCP [1]; [6]): -0.654; Ranking score (human NTCP [2]; [7]): 307.444; B-score functional assay (human NTCP [2]; [8]): -0.84
7 | Cl.NCC(O)c1ccc(O)cc1 (racemic) [(+,-)-Octopamine hydrochloride] | 0.069 | 2.044 | 930.549 |  |  |  | 
8 | NCC(CC(=O)O)c1ccc(Cl)cc1 (racemic) [Baclofen (R,S)] | 0.531 | 2.955 | 1069.07 |  |  |  | 
9 | COC(=O)C1=C(C)NC(C)=C(C(=O)O[C@@H]2CCCN(Cc3ccccc3)C2)[C@@H]1c1cccc([N+](=O)[O-])c1.Cl (racemic) [Benidipine hydrochloride] |  |  |  |  |  |  | B-score binding assay (human NTCP [1]; [6]): -0.032; Ranking score (human NTCP [2]; [7]): 426.727; B-score functional assay (human NTCP [2]; [8]): -0.759
10 | CC(C)(S)C(N)C(=O)O (racemic) [D,L-Penicillamine] | 0.477 | 0.176 | 845.872 |  |  |  | 
11 | OCC(O)CN1CCN(c2ccccc2)CC1 (racemic) [Dropropizine (R,S)] |  |  |  | 0.054 | 0.232 | 761.407 | 
12 | COCCc1ccc(OCC(O)CNC(C)C)cc1.COCCc1ccc(OCC(O)CNC(C)C)cc1.O=C(O)C(O)C(O)C(=O)O (racemic) [Metoprolol-(+,-) (+)-tartrate salt] |  |  |  |  |  |  | B-score binding assay (human NTCP [1]; [6]): -0.835; Ranking score (human NTCP [2]; [7]): 295.567; B-score functional assay (human NTCP [2]; [8]): -0.726
13 | CN1CCC2(C)c3cc(O)ccc3N(C)C12.O=C(O)/C=C/C(=O)O (single isomer, unassigned; (-)) [(-)-Eseroline fumarate salt] |  |  |  | 0.233 | 0.19 | 803.481 | 
14 | CC(C)NCC(O)c1ccc(O)c(O)c1.Cl (single isomer, unassigned; (-)) [(-)-Isoproterenol hydrochloride] | 0.852 | 0.061 | 845.999 |  |  |  | 
15 | Clc1cnccn1 [2-Chloropyrazine] |  |  |  | -0.068 | 1.648 | 812.047 | 
16 | C[C@]12CC[C@@H](O)C[C@H]1CC[C@@H]1[C@@H]2CC[C@]2(C)C(=O)CC[C@@H]12 [3-alpha-Hydroxy-5-beta-androstan-17-one] |  |  |  |  |  |  | B-score binding assay (human NTCP [1]): 0.051; B-score functional assay (human NTCP [2]): -2.764; Ranking score (human NTCP [2]): 235.83
17 | Nc1ccc(C(=O)O)c(O)c1 [4-aminosalicylic acid] |  |  |  |  |  |  | B-score binding assay (human NTCP [1]; [6]): -0.683; Ranking score (human NTCP [2]; [7]): 360.074; B-score functional assay (human NTCP [2]; [8]): -0.405
18 | O=c1[nH]cc(F)c(=O)[nH]1 [5-fluorouracil] |  |  |  |  |  |  | B-score binding assay (human NTCP [1]; [6]): -1.388; Ranking score (human NTCP [2]; [7]): 327.242; B-score functional assay (human NTCP [2]; [8]): -0.016
19 | c1coc(CNc2ncnc3nc[nH]c23)c1 [6-Furfurylaminopurine] |  |  |  | -0.434 | 2.357 | 696.25 | 
20 | CC(C)NC[C@@H](O)c1ccc(O)c(O)c1.O=C(O)C(O)C(O)C(=O)O [(+)-Isoproterenol (+)-bitartrate salt] |  |  |  | -0.368 | 2.072 | 708.011 | 
21 | Nc1nc(=O)n([C@@H]2CS[C@H](CO)O2)cc1F [(-)-Emtricitabine] | 0.464 | 1.373 | 1006 |  |  |  | 
22 | C[C@@]12N[C@@H](Cc3ccccc31)c1ccccc12.O=C(O)/C=C\C(=O)O [(-)-MK 801 hydrogen maleate] |  |  |  | 0.115 | -0.004 | 690.814 | 
23 | COc1ccc2cc([C@@H](C)C(=O)[O-])ccc2c1.[Na+] [(R) -Naproxen sodium salt] |  |  |  |  |  |  | B-score binding assay (human NTCP [1]): 0.921; B-score functional assay (human NTCP [2]): -0.341; Ranking score (human NTCP [2]): 667.638

Source: article PMC5681660, “Reduced hepatitis B and D viral entry using clinically applied drugs as novel inhibitors of the bile acid transporter NTCP” (Scientific Reports, 2017)
